Measurements taken from US11111237B2, “Bicyclic compound and use thereof” (SK BIOPHARMACEUTICALS CO., LTD., priority 2019, dated 2021).
Structures can show the parent of a compound that is named as a salt.

These compounds were tested against PRMT5-MEP50 enzyme complex (Homo sapiens (Human), UniProt O14744) (assay: PRMT5 enzyme activity in vitro assay (methylation of histone H4R3, ELISA absorbance at 450 nm)). Conditions: SAM, histone H4 peptide, room temperature 2 hours, 8 points from 10 μM to 0.128 nM.
PRMT5-MEP50 enzyme complex, sequence (O14744 2-637): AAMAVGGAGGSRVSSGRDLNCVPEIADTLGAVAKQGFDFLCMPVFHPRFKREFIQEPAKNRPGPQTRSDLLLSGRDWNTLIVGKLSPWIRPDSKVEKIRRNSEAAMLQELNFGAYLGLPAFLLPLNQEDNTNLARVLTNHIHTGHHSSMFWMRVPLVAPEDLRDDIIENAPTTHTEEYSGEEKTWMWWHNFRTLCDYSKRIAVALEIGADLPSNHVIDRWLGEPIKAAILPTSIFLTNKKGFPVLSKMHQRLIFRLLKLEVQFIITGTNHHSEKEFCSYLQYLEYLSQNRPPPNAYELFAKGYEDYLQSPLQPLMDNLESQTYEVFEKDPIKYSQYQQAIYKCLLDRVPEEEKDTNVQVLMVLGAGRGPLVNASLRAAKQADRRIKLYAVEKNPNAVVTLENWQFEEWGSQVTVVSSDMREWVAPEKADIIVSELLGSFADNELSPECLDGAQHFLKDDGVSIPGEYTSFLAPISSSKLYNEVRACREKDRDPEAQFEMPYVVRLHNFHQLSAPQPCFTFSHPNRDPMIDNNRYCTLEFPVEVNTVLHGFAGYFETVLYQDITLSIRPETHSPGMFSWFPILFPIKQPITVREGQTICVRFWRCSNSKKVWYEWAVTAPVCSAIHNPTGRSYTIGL
PRMT5-MEP50 enzyme complex, sequence (Q9BQA1 2-342 partner): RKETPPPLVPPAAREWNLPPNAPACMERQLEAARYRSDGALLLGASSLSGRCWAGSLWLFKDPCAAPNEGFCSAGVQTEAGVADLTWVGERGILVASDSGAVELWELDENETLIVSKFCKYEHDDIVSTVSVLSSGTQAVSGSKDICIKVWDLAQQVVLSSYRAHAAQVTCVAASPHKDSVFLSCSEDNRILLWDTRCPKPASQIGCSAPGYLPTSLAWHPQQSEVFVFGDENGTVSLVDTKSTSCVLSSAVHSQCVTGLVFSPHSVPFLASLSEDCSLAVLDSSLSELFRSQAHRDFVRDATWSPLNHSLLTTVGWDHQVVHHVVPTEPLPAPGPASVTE
Format: biochemical
Method in brief: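 Human PRMT5-MEP50 was prepared at 5 μg/mL with SAM at 2 μM and reacted 2 h at room temperature on plate-coated histone H4 (1-20) peptide. An 8-point 1:5 compound series ran from 10 μM to 0.128 nM. H4R3 methylation was detected by antibody/HRP ELISA at 450 nm to give IC50.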

Structure (SMILES) | IC50
CC(=O)N1CC(Oc2ccc3c(c2)OC(C)(C)CN(C[C@H](O)CN2CCc4ccccc4C2)C3=O)C1 [Example 114, 8-(1-acetylazetidin-3-yl)oxy-4-[(2R)-3-(3,4-dihydro-1H-isoquinolin-2-yl)-2-hydroxy-propyl]-2,2-dimethyl-3H-1,4-benzoxazepin-5-one] | 1 to 100 nM
CN1CCN(C[C@H](O)CN2CCc3ccccc3C2)C(=O)c2ccc(CN3CCOCC3)cc21 [Example 115, 4-[(2R)-3-(3,4-dihydro-1H-isoquinolin-2-yl)-2-hydroxy-propyl]-1-methyl-8-(morpholinomethyl)-2,3-dihydro-1,4-benzodiazepin-5-one] | 1 to 100 nM
CN1CCN(C[C@H](O)CN2CCc3ccccc3C2)C(=O)c2ccc(CCC(F)(F)F)cc21 [Example 116, 4-[(2R)-3-(3,4-dihydro-1H-isoquinolin-2-yl)-2-hydroxy-propyl]-1-methyl-8-(3,3,3-trifluoropropyl)-2,3-dihydro-1,4-benzodiazepin-5-one] | 100 to 1000 nM
CN1CCN(C[C@H](O)CN2CCc3ccccc3C2)C(=O)c2ccc(CC3CCCCC3)cc21 [Example 117, 8-(cyclohexylmethyl)-4-[(2R)-3-(3,4-dihydro-1H-isoquinolin-2-yl)-2-hydroxy-propyl]-1-methyl-2,3-dihydro-1,4-benzodiazepin-5-one] | 100 to 1000 nM
CN1CCN(C[C@H](O)CN2CCc3ccccc3C2)C(=O)c2ccc(C3=CCCCC3)cc21 [Example 118, 8-(cyclohexen-1-yl)-4-[(2R)-3-(3,4-dihydro-1H-isoquinolin-2-yl)-2-hydroxy-propyl]-1-methyl-2,3-dihydro-1,4-benzodiazepin-5-one] | 1 to 100 nM
CN1CCN(C[C@H](O)CN2CCc3ccccc3C2)C(=O)c2ccc(C3=CCC(C(F)(F)F)CC3)cc21 (stereo partly drawn) [Example 119, 4-[(2R)-3-(3,4-dihydro-1H-isoquinolin-2-yl)-2-hydroxy-propyl]-1-methyl-8-[4-(trifluoromethyl)cyclohexen-1-yl]-2,3-dihydro-1,4-benzodiazepin-5-one] | 100 to 1000 nM
CN1CCN(C[C@H](O)CN2CCc3ccccc3C2)C(=O)c2ccc(C3=CCN(C(=O)OC(C)(C)C)CC3)cc21 [Example 120, tert-butyl 4-[4-[(2R)-3-(3,4-dihydro-1H-isoquinolin-2-yl)-2-hydroxy-propyl]-1-methyl-5-oxo-2,3-dihydro-1,4-benzodiazepin-8-yl]-3,6-dihydro-2H-pyridine-1-carboxylate] | 1 to 100 nM
CC(=O)N1CCC(Oc2ccc3c(c2)N(C)CCN(C[C@H](O)CN2CCc4ccccc4C2)C3=O)CC1 [Example 121, 8-[(1-acetyl-4-piperidyl)oxy]-4-[(2R)-3-(3,4-dihydro-1H-isoquinolin-2-yl)-2-hydroxy-propyl]-1-methyl-2,3-dihydro-1,4-benzodiazepin-5-one] | 100 to 1000 nM
CC(=O)N1CC(Oc2ccc3c(c2)N(C)CCN(C[C@H](O)CN2CCc4ccccc4C2)C3=O)C1 [Example 122, 8-(1-acetylazetidin-3-yl)oxy-4-[(2R)-3-(3,4-dihydro-1H-isoquinolin-2-yl)-2-hydroxy-propyl]-1-methyl-2,3-dihydro-1,4-benzodiazepin-5-one] | 100 to 1000 nM
CC(=O)N1CC[C@@H](Oc2ccc3c(c2)N(C)CCN(C[C@H](O)CN2CCc4ccccc4C2)C3=O)C1 [Example 123, 8-[(3R)-1-acetylpyrrolidin-3-yl]oxy-4-[(2R)-3-(3,4-dihydro-1H-isoquinolin-2-yl)-2-hydroxy-propyl]-1-methyl-2,3-dihydro-1,4-benzodiazepin-5-one] | 100 to 1000 nM
CC(=O)N1CC[C@H](Oc2ccc3c(c2)N(C)CCN(C[C@H](O)CN2CCc4ccccc4C2)C3=O)C1 [Example 124, 8-[(3S)-1-acetylpyrrolidin-3-yl]oxy-4-[(2R)-3-(3,4-dihydro-1H-isoquinolin-2-yl)-2-hydroxy-propyl]-1-methyl-2,3-dihydro-1,4-benzodiazepin-5-one] | 100 to 1000 nM
CN1CCC(Oc2ccc3c(c2)N(C)CCN(C[C@H](O)CN2CCc4ccccc4C2)C3=O)CC1 [Example 125, 4-[(2R)-3-(3,4-dihydro-1H-isoquinolin-2-yl)-2-hydroxy-propyl]-1-methyl-8-[(1-methyl-4-piperidyl)oxy]-2,3-dihydro-1,4-benzodiazepin-5-one] | 100 to 1000 nM
CCN1CCC(Oc2ccc3c(c2)N(C)CCN(C[C@H](O)CN2CCc4ccccc4C2)C3=O)CC1 [Example 126, 4-[(2R)-3-(3,4-dihydro-1H-isoquinolin-2-yl)-2-hydroxy-propyl]-8-[(1-ethyl-4-piperidyl)oxy]-1-methyl-2,3-dihydro-1,4-benzodiazepin-5-one] | 100 to 1000 nM
CN1CCN(C[C@H](O)CN2CCc3ccccc3C2)C(=O)c2ccc(OC3CCN(C4CCC4)CC3)cc21 [Example 127, 8-[(1-cyclobutyl-4-piperidyl)oxy]-4-[(2R)-3-(3,4-dihydro-1H-isoquinolin-2-yl)-2-hydroxy-propyl]-1-methyl-2,3-dihydro-1,4-benzodiazepin-5-one] | 1 to 100 nM
CN1CCN(C[C@H](O)CN2CCc3ccccc3C2)C(=O)c2ccc(OC3CCN(C4CCOC4)CC3)cc21 (stereo partly drawn) [Example 128, 4-[(2R)-3-(3,4-dihydro-1H-isoquinolin-2-yl)-2-hydroxy-propyl]-1-methyl-8-[(1-tetrahydrofuran-3-yl-4-piperidyl)oxy]-2,3-dihydro-1,4-benzodiazepin-5-one] | 100 to 1000 nM
CN1CCN(C[C@H](O)CN2CCc3ccccc3C2)C(=O)c2ccc(OC3CCN(C4COC4)CC3)cc21 [Example 129, 4-[(2R)-3-(3,4-dihydro-1H-isoquinolin-2-yl)-2-hydroxy-propyl]-1-methyl-8-[[1-(oxetan-3-yl)-4-piperidyl]oxy]-2,3-dihydro-1,4-benzodiazepin-5-one] | 100 to 1000 nM
CN1CCCC(Oc2ccc3c(c2)N(C)CCN(C[C@H](O)CN2CCc4ccccc4C2)C3=O)C1 (stereo partly drawn) [Example 130, 4-[(2R)-3-(3,4-dihydro-1H-isoquinolin-2-yl)-2-hydroxy-propyl]-1-methyl-8-[(1-methyl-3-piperidyl)oxy]-2,3-dihydro-1,4-benzodiazepin-5-one] | 100 to 1000 nM
CN1CCC(COc2ccc3c(c2)N(C)CCN(C[C@H](O)CN2CCc4ccccc4C2)C3=O)C1 (stereo partly drawn) [Example 131, 4-[(2R)-3-(3,4-dihydro-1H-isoquinolin-2-yl)-2-hydroxy-propyl]-1-methyl-8-[(1-methylpyrrolidin-3-yl)methoxy]-2,3-dihydro-1,4-benzodiazepin-5-one] | 100 to 1000 nM
CN1CCC(Oc2ccc3c(c2)N(C)CCN(C[C@H](O)CN2CCc4ccccc4C2)C3=O)C1 (stereo partly drawn) [Example 132, 4-[(2R)-3-(3,4-dihydro-1H-isoquinolin-2-yl)-2-hydroxy-propyl]-1-methyl-8-(1-methylpyrrolidin-3-yl)oxy-2,3-dihydro-1,4-benzodiazepin-5-one] | 100 to 1000 nM
CN1CCCC(COc2ccc3c(c2)N(C)CCN(C[C@H](O)CN2CCc4ccccc4C2)C3=O)C1 (stereo partly drawn) [Example 133, 4-[(2R)-3-(3,4-dihydro-1H-isoquinolin-2-yl)-2-hydroxy-propyl]-1-methyl-8-[(1-methyl-3-piperidyl)methoxy]-2,3-dihydro-1,4-benzodiazepin-5-one] | 1 to 100 nM
CN1CCN(C[C@H](O)CN2CCc3ccccc3C2)C(=O)c2ccc(OCc3ccncc3F)cc21 [Example 134, 4-[(2R)-3-(3,4-dihydro-1H-isoquinolin-2-yl)-2-hydroxy-propyl]-8-[(3-fluoro-4-pyridyl)methoxy]-1-methyl-2,3-dihydro-1,4-benzodiazepin-5-one] | 1 to 100 nM
CN1CCN(C[C@H](O)CN2CCc3ccccc3C2)C(=O)c2ccc(OC3CCNCC3F)cc21 (stereo partly drawn) [Example 135, 4-[(2R)-3-(3,4-dihydro-1H-isoquinolin-2-yl)-2-hydroxy-propyl]-8-[(3-fluoro-4-piperidyl)oxy]-1-methyl-2,3-dihydro-1,4-benzodiazepin-5-one; dihydrochloride] | 100 to 1000 nM
CCN1CCC(Oc2ccc3c(c2)N(C)CCN(C[C@H](O)CN2CCc4ccccc4C2)C3=O)C(F)C1 (stereo partly drawn) [Example 136, 4-[(2R)-3-(3,4-dihydro-1H-isoquinolin-2-yl)-2-hydroxy-propyl]-8-[(1-ethyl-3-fluoro-4-piperidyl)oxy]-1-methyl-2,3-dihydro-1,4-benzodiazepin-5-one] | 100 to 1000 nM
CCN1C2CCC1CC(Oc1ccc3c(c1)N(C)CCN(C[C@H](O)CN1CCc4ccccc4C1)C3=O)C2 (stereo partly drawn) [Example 137, 4-[(2R)-3-(3,4-dihydro-1H-isoquinolin-2-yl)-2-hydroxy-propyl]-8-[(8-ethyl-8-azabicyclo[3.2.1]octan-3-yl)oxy]-1-methyl-2,3-dihydro-1,4-benzodiazepin-5-one] | 1 to 100 nM
CC1CC(Oc2ccc3c(c2)N(C)CCN(C[C@H](O)CN2CCc4ccccc4C2)C3=O)CCN1 (stereo partly drawn) [Example 138, 4-[(2R)-3-(3,4-dihydro-1H-isoquinolin-2-yl)-2-hydroxy-propyl]-1-methyl-8-[(2-methyl-4-piperidyl)oxy]-2,3-dihydro-1,4-benzodiazepin-5-one; dihydrochloride] | 100 to 1000 nM
CN1CCN(C[C@H](O)CN2CCc3ccccc3C2)C(=O)c2ccc(OCc3ccc(F)cn3)cc21 [Example 139, 4-[(2R)-3-(3,4-dihydro-1H-isoquinolin-2-yl)-2-hydroxy-propyl]-8-[(5-fluoro-2-pyridyl)methoxy]-1-methyl-2,3-dihydro-1,4-benzodiazepin-5-one] | 100 to 1000 nM
CC1CN(C[C@H](O)CN2CCc3ccccc3C2)C(=O)c2ccc(OC3CCNCC3)cc2O1 (stereo partly drawn) [Example 140, 4-[(2R)-3-(3,4-dihydro-1H-isoquinolin-2-yl)-2-hydroxypropyl]-2-methyl-8-(4-piperidyloxy)-2,3-dihydro-1,4-benzoxazepin-5-one di hydrochloride] | 100 to 1000 nM
CC1CN(C[C@H](O)CN2CCc3ccccc3C2)C(=O)c2ccc(OC3CCN(C)CC3)cc2O1 (stereo partly drawn) [Example 141, 4-[(2R)-3-(3,4-dihydro-1H-isoquinolin-2-yl)-2-hydroxypropyl]-2-methyl-8-[(1-methyl-4-piperidyl)oxy]-2,3-dihydro-1,4-benzoxazepin-5-one] | 1 to 100 nM
